Measurements from patent US8563714B2, “Bridged spiro [2.4] heptane derivatives as ALX receptor and/or FPRL2 agonists” (Actelion Pharmaceuticals Ltd., priority 2009, dated 2013).

Legend:
[1] = biological target: T1, human ALX receptor (Homo sapiens, UniProt P25090); assay: Intracellular calcium measurements (FLIPR), agonistic activity in HEK293-hALXR-Gα16 cells; type: cell-based; conditions: Fluo-4 calcium FLIPR, normalized to WKYMVm 10 nM
T1 construct: expressed in transfected cells; host or cells: HEK293 (HEK293-hALXR-Gα16)
T1 sequence (P25090 1-351): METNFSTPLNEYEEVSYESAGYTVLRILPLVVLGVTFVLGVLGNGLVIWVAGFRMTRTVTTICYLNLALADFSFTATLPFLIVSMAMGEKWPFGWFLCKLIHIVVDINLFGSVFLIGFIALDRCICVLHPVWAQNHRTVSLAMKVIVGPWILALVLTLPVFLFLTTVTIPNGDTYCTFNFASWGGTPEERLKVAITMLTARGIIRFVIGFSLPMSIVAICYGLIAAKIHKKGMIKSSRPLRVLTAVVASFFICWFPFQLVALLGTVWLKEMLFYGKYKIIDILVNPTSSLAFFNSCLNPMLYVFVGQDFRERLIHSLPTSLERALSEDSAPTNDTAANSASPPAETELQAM
Procedure: (§1) The ALX receptor and FPRL2 agonistic activities of the compounds of formula (I) are determined in accordance with the following experimental method.
(§2) Intracellular Calcium Measurements:
Cells expressing recombinant human ALX receptor and the G-protein Gα16 (HEK293-hALXR-Gα16) were grown to 80% confluency in Growing Medium (GM). Cells were detached from culture dishes with a cell dissociation buffer (Invitrogen, 13151-014), and collected by centrifugation at 1,000 rpm at rt for 5 min in Assay Buffer (AB) (equal parts of Hank's BSS (Gibco, 14065-049) and DMEM without Phenol Red (Gibco, 11880-028)). After 60 min incubation at 37° C. under 5% CO2 in AB supplemented with 1 μM Fluo-4 (AM) (Invitrogen, F14202), and 20 mM HEPES (Gibco, 15630-056), the cells were washed and resuspended in AB. They were then seeded onto 384-well FLIPR assay plates (Greiner, 781091) at 50′000 cells in 70 μl per well and sedimented by centrifugation at 1,000 rpm for 1 min. Stock solutions of test compounds were made up at a concentration of 10 mM in DMSO, and serially diluted in AB to concentrations required for activation dose response curves. WKYMVm (Phoenix Peptides) was used as a reference agonist. FLIPR384 or FLIPR Tetra instruments (Molecular Devices) were operated according to the manufacturer's standard instructions, adding 4 μl of test compound dissolved at 10 mM in DMSO and diluted prior to the experiment in assay buffer to obtain the desired final concentration. Changes in fluorescence were monitored before and after the addition of test compounds at lex=488 nm and lem=540 nm. Emission peak values above base level after compounds addition were exported after base line subtraction. Values were normalized to high-level control (WKYMVm compound, 10 nM final concentration) after subtraction of the base line value (AB addition).

[2] = biological target: T2, human FPRL2 (Homo sapiens, UniProt P25089); assay: Intracellular calcium measurements (FLIPR), agonistic activity in HEK293-hFPRL2-Gα16 cells; type: cell-based; conditions: Fluo-4 calcium FLIPR, normalized to GLY14-Humanin 100 nM
T2 construct: expressed in transfected cells; host or cells: HEK293 (HEK293-hFPRL2-Gα16)
T2 sequence (P25089 1-353): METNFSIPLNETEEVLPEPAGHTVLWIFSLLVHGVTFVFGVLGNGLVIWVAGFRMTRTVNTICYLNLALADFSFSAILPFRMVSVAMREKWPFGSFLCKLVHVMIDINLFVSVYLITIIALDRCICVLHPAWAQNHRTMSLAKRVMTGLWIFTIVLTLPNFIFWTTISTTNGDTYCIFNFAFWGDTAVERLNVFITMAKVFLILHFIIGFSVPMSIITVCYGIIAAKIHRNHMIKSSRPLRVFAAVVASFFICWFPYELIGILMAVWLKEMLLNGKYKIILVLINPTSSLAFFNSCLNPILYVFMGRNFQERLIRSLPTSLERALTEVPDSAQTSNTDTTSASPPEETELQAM
Procedure: as §1, §2
Cells expressing recombinant human FPRL2 and the G-protein Gα16 (HEK293-hFPRL2-Gα16) were grown to 80% confluency in Growing Medium (GM). […] Stock solutions of test compounds were made up at a concentration of 10 mM in DMSO, and serially diluted in AB to concentrations required for activation dose response curves. Gly14-Humanin (Humanin peptide with replacement of Serine by Glycine at position 14, Phoenix Peptides) was used as a reference agonist. FLIPR384 or FLIPR Tetra instruments (Molecular Devices) were operated according to the manufacturer's standard instructions, adding 4 μl of test compound dissolved at 10 mM in DMSO and diluted prior to the experiment in assay buffer to obtain the desired final concentration. Changes in fluorescence were monitored before and after the addition of test compounds at lex=488 nm and lem=540 nm. Emission peak values above base level after compounds addition were exported after base line subtraction. Values were normalized to high-level control (GLY14-Humanin compound, 100 nM final concentration) after subtraction of the base line value (AB addition).

Compound	EC50 [1] [nM]	EC50 [2] [nM]
CCSCCNC(=O)[C@H]1[C@H](C(=O)Nc2ccc(Br)cc2)[C@@H]2C=C[C@H]1C21CC1 (racemic) [Example 24, (5R*)—N^5-(4-Bromophenyl)-(6R*)—N^6-(2-ethylsulfanyl-ethyl)-(4S*,7R*)-[4,7-ethenylene-spiro[2.4]heptane]-5,6-dicarboxamide]	3.7	4120
O=C(NCCN1CCNC1=O)[C@H]1[C@H](C(=O)Nc2ccc(Br)cc2)[C@@H]2C=C[C@H]1C21CC1 (racemic) [Example 29, (5R*)—N^5-(4-Bromophenyl)-(6R*)—N^6-(2-imidazolidin-2-on-1-yl-ethyl)-(4S*,7R*)-[4,7-ethenylene-spiro[2.4]heptane]-5,6-dicarboxamide]	4.8	5580
O=C(NCCCN1CCCC1)[C@H]1[C@H](C(=O)Nc2ccc(Br)cc2)[C@@H]2C=C[C@H]1C21CC1 (racemic) [Example 30, (5R*)—N^5-(4-Bromophenyl)-(6R*)—N^6-(3-pyrrolidin-1-yl-propyl)-(4S*,7R*)-[4,7-ethenylene-spiro[2.4]heptane]-5,6-dicarboxamide]	4.9	405
O=C(NCCCc1nc2ccccc2[nH]1)[C@H]1[C@H](C(=O)Nc2ccc(Br)cc2)[C@@H]2C=C[C@H]1C21CC1 (racemic) [Example 32, (5R*)—N^5-(4-Bromophenyl)-(6R*)—N^6-(3-(1H-benzoimidazol-2-yl)-propyl)-(4S*,7R*)-[4,7-ethenylene-spiro[2.4]heptane]-5,6-dicarboxamide]	5.4	3280
O=C(NCCO)[C@H]1[C@H](C(=O)Nc2ccc(Br)cc2)[C@@H]2C=C[C@H]1C21CC1 (racemic) [Example 34, (5R*)—N^5-(4-Bromophenyl)-(6R*)—N^6-(2-hydroxy-ethyl)-(4S*,7R*)-[4,7-ethenylene-spiro[2.4]heptane]-5,6-dicarboxamide]	6.1	16100
COCCN(CCOC)C(=O)C1C(C(=O)Nc2ccc(Br)cc2)C2C=CC1C21CC1 (racemic) [Example 35, (5R*)—N^5-(4-Bromophenyl)-(6R*)—N^6,N^6-bis-(2-methoxy-ethyl)-(4S*,7R*)-[4,7-ethenylene-spiro[2.4]heptane]-5,6-dicarboxamide]	6.1	1870
N#CCNC(=O)[C@H]1[C@H](C(=O)Nc2ccc(Br)cc2)[C@@H]2C=C[C@H]1C21CC1 (racemic) [Example 36, (5R*)—N^5-(4-Bromophenyl)-(6R*)—N^6-(cyano-methyl)-(4S*,7R*)-[4,7-ethenylene-spiro[2.4]heptane]-5,6-dicarboxamide]	6.7	11500
O=C(NCCCn1cccn1)[C@H]1[C@H](C(=O)Nc2ccc(Br)cc2)[C@@H]2C=C[C@H]1C21CC1 (racemic) [Example 37, (5R*)—N^5-(4-Bromophenyl)-(6R*)—N^6-(3-1H-pyrazol-1-yl-propyl)-(4S*,7R*)-[4,7-ethenylene-spiro[2.4]heptane]-5,6-dicarboxamide]	7.1	1710
NCc1ccc(CNC(=O)[C@H]2[C@H](C(=O)Nc3ccc(Br)cc3)[C@@H]3C=C[C@H]2C32CC2)cc1 (racemic) [Example 38, (5R*)—N^5-(4-Bromophenyl)-(6R*)—N^6-[(4-aminomethyl-phenyl)-methyl]-(4S*,7R*)-[4,7-ethenylene-spiro[2.4]heptane]-5,6-dicarboxamide]	7.5	1550
CCN(CC)CCN(CC)C(=O)[C@H]1[C@H](C(=O)Nc2ccc(Br)cc2)[C@@H]2C=C[C@H]1C21CC1 (racemic) [Example 39, (5R*)—N^5-(4-Bromophenyl)-(6R*)—N^6-ethyl-N^6-(2-diethylamino-ethyl)-(4S*,7R*)-[4,7-ethenylene-spiro[2.4]heptane]-5,6-dicarboxamide]	7.6	1540
O=C(NCCCn1ccnc1)[C@H]1[C@H](C(=O)Nc2ccc(Br)cc2)[C@@H]2C=C[C@H]1C21CC1 (racemic) [Example 40, (5R*)—N^5-(4-Bromophenyl)-(6R*)—N^6-(3-1H-imidazol-1-yl-propyl)-(4S*,7R*)-[4,7-ethenylene-spiro[2.4]heptane]-5,6-dicarboxamide]	9	848
O=C(NCCCCO)[C@H]1[C@H](C(=O)Nc2ccc(Br)cc2)[C@@H]2C=C[C@H]1C21CC1 (racemic) [Example 42, (5R*)—N^5-(4-Bromophenyl)-(6R*)—N^6-(4-hydroxy-butyl)-(4S*,7R*)-[4,7-ethenylene-spiro[2.4]heptane]-5,6-dicarboxamide]	9.6	7840
CN1CCN(CCCNC(=O)[C@H]2[C@H](C(=O)Nc3ccc(Br)cc3)[C@@H]3C=C[C@H]2C32CC2)CC1 (racemic) [Example 43, (5R*)—N^5-(4-Bromophenyl)-(6R*)—N^6-(3-(4-methyl-piperazin-1-yl)-propyl)-(4S*,7R*)-[4,7-ethenylene-spiro[2.4]heptane]-5,6-dicarboxamide]	9.5	925
NCCNC(=O)[C@H]1[C@H](C(=O)Nc2ccc(Br)cc2)[C@@H]2C=C[C@H]1C21CC1 (racemic) [Example 44, (5R*)—N^5-(4-Bromophenyl)-(6R*)—N^6-(2-amino-ethyl)-(4S*,7R*)-[4,7-ethenylene-spiro[2.4]heptane]-5,6-dicarboxamide]	10	4910
CN(C)CCN(C)C(=O)[C@H]1[C@H](C(=O)Nc2ccc(Br)cc2)[C@@H]2C=C[C@H]1C21CC1 (racemic) [Example 45, (5R*)—N^5-(4-Bromophenyl)-(6R*)—N^6-methyl-N^6-(2-dimethylamino-ethyl)-(4S*,7R*)-[4,7-ethenylene-spiro[2.4]heptane]-5,6-dicarboxamide]	11	4160
CC(C)(C)OC(=O)NCCCCNC(=O)[C@H]1[C@H](C(=O)Nc2ccc(Br)cc2)[C@@H]2C=C[C@H]1C21CC1 (racemic) [Example 46, (5R*)—N^5-(4-Bromophenyl)-(6R*)—N^6-(4-tert-butoxycarbonyl-amino-butyl)-(4S*,7R*)-[4,7-ethenylene-spiro[2.4]heptane]-5,6-dicarboxamide]	11	1600
CN(CCNC(=O)[C@H]1[C@H](C(=O)Nc2ccc(Br)cc2)[C@@H]2C=C[C@H]1C21CC1)C(=O)OC(C)(C)C (racemic) [Example 47, (5R*)—N^5-(4-Bromophenyl)-(6R*)—N^6-(2-(methyl-tert-butoxycarbonyl-amino)-ethyl)-(4S*,7R*)-[4,7-ethenylene-spiro[2.4]heptane]-5,6-dicarboxamide]	12	1170
